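Tested at 5 concentrations; 48 h exposure; 96-well plates; endpoints linearly interpolated, else capped at highest concentration. Definition used: TGI = concentration required for complete inhibition of growth.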
What was measured:
Test in all cases: growth of human tumour cells (NCI), 48 h
OVCAR-4 ovarian = test system: OVCAR-4 ovarian
MDA-MB-231 breast = test system: MDA-MB-231 breast
OVCAR-5 ovarian = test system: OVCAR-5 ovarian
OVCAR-3 ovarian = test system: OVCAR-3 ovarian
SN12C renal = test system: SN12C renal
BT-549 breast = test system: BT-549 breast
SNB-19 CNS = test system: SNB-19 CNS
T-47D breast = test system: T-47D breast
UO-31 renal = test system: UO-31 renal
CCRF-CEM leukemia = test system: CCRF-CEM leukemia
SK-MEL-28 melanoma = test system: SK-MEL-28 melanoma
LOX IMVI melanoma = test system: LOX IMVI melanoma
HL-60(TB) leukemia = test system: HL-60(TB) leukemia
SK-MEL-5 melanoma = test system: SK-MEL-5 melanoma
PC-3 prostate = test system: PC-3 prostate
SK-MEL-2 melanoma = test system: SK-MEL-2 melanoma
NCI/ADR-RES ovarian = test system: NCI/ADR-RES ovarian
NCI-H23 lung = test system: NCI-H23 lung
IGROV1 ovarian = test system: IGROV1 ovarian
OVCAR-8 ovarian = test system: OVCAR-8 ovarian
MOLT-4 leukemia = test system: MOLT-4 leukemia
NCI-H522 lung = test system: NCI-H522 lung
MCF7 breast = test system: MCF7 breast
SW-620 colon = test system: SW-620 colon
CAKI-1 renal = test system: CAKI-1 renal
A498 renal = test system: A498 renal
TK-10 renal = test system: TK-10 renal
EKVX NSCLC = test system: EKVX NSCLC
UACC-62 melanoma = test system: UACC-62 melanoma
KM12 colon = test system: KM12 colon
HOP-92 NSCLC = test system: HOP-92 NSCLC
RXF 393 renal = test system: RXF 393 renal
DU-145 prostate = test system: DU-145 prostate
SF-295 CNS = test system: SF-295 CNS
NCI-H226 lung = test system: NCI-H226 lung
HOP-62 NSCLC = test system: HOP-62 NSCLC
HT29 colon = test system: HT29 colon
SF-539 CNS = test system: SF-539 CNS
HS 578T breast = test system: HS 578T breast
SF-268 CNS = test system: SF-268 CNS
RPMI-8226 leukemia = test system: RPMI-8226 leukemia
MDA-N = test system: MDA-N
HCT-116 colon = test system: HCT-116 colon
HCT-15 colon = test system: HCT-15 colon
NCI-H460 lung = test system: NCI-H460 lung
786-0 renal = test system: 786-0 renal
HCC-2998 colon = test system: HCC-2998 colon
U251 CNS = test system: U251 CNS
MDA-MB-435 = test system: MDA-MB-435
SNB-75 CNS = test system: SNB-75 CNS
UACC-257 melanoma = test system: UACC-257 melanoma
ACHN renal = test system: ACHN renal
SR leukemia = test system: SR leukemia
MALME-3M melanoma = test system: MALME-3M melanoma
A549 NSCLC = test system: A549 NSCLC
SK-OV-3 ovarian = test system: SK-OV-3 ovarian
K-562 leukemia = test system: K-562 leukemia

## Nc1nc(Cl)c(Cl)c(NCC2(O)CCC2)n1
OVCAR-4 ovarian
  TGI: 69 µM
MDA-MB-231 breast
  TGI: > 100 µM
OVCAR-5 ovarian
  TGI: > 100 µM
OVCAR-3 ovarian
  TGI: > 100 µM
SN12C renal
  TGI: > 100 µM
BT-549 breast
  TGI: > 100 µM
SNB-19 CNS
  TGI: > 100 µM
T-47D breast
  TGI: 64.2 µM
UO-31 renal
  TGI: > 100 µM
CCRF-CEM leukemia
  TGI: > 100 µM
SK-MEL-28 melanoma
  TGI: > 100 µM
LOX IMVI melanoma
  TGI: > 100 µM
HL-60(TB) leukemia
  TGI: > 100 µM
SK-MEL-5 melanoma
  TGI: > 100 µM
PC-3 prostate
  TGI: > 100 µM
SK-MEL-2 melanoma
  TGI: > 100 µM
NCI/ADR-RES ovarian
  TGI: > 100 µM
NCI-H23 lung
  TGI: > 100 µM
IGROV1 ovarian
  TGI: > 100 µM
OVCAR-8 ovarian
  TGI: > 100 µM
MOLT-4 leukemia
  TGI: > 100 µM
NCI-H522 lung
  TGI: 40.9 µM
MCF7 breast
  TGI: > 100 µM
SW-620 colon
  TGI: > 100 µM
CAKI-1 renal
  TGI: 29.6 µM
A498 renal
  TGI: 97 µM
TK-10 renal
  TGI: > 100 µM
EKVX NSCLC
  TGI: > 100 µM
UACC-62 melanoma
  TGI: > 100 µM
KM12 colon
  TGI: > 100 µM
HOP-92 NSCLC
  TGI: > 100 µM
RXF 393 renal
  TGI: > 100 µM
DU-145 prostate
  TGI: > 100 µM
SF-295 CNS
  TGI: > 100 µM
NCI-H226 lung
  TGI: > 100 µM
HOP-62 NSCLC
  TGI: > 100 µM
HT29 colon
  TGI: > 100 µM
SF-539 CNS
  TGI: > 100 µM
HS 578T breast
  TGI: > 100 µM
SF-268 CNS
  TGI: > 100 µM
RPMI-8226 leukemia
  TGI: > 100 µM
MDA-N
  TGI: > 100 µM
HCT-116 colon
  TGI: > 100 µM
HCT-15 colon
  TGI: > 100 µM
NCI-H460 lung
  TGI: > 100 µM
786-0 renal
  TGI: > 100 µM
HCC-2998 colon
  TGI: > 100 µM
U251 CNS
  TGI: > 100 µM
MDA-MB-435
  TGI: > 100 µM
SNB-75 CNS
  TGI: > 100 µM
UACC-257 melanoma
  TGI: > 100 µM
ACHN renal
  TGI: > 100 µM
SR leukemia
  TGI: > 100 µM
MALME-3M melanoma
  TGI: > 100 µM
A549 NSCLC
  TGI: > 100 µM
SK-OV-3 ovarian
  TGI: > 100 µM
K-562 leukemia
  TGI: > 100 µM

## CC(C)=CC[C@]12CCN(C)[C@H]1N(S(=O)(=O)c1ccccc1)c1ccccc12
OVCAR-4 ovarian
  TGI: > 100 µM
MDA-MB-231 breast
  TGI: > 100 µM
OVCAR-5 ovarian
  TGI: > 100 µM
OVCAR-3 ovarian
  TGI: > 74.4 µM
SN12C renal
  TGI: > 100 µM
BT-549 breast
  TGI: > 100 µM
SNB-19 CNS
  TGI: > 100 µM
T-47D breast
  TGI: > 76 µM
UO-31 renal
  TGI: > 100 µM
CCRF-CEM leukemia
  TGI: > 100 µM
SK-MEL-28 melanoma
  TGI: > 100 µM
LOX IMVI melanoma
  TGI: > 51.6 µM
HL-60(TB) leukemia
  TGI: > 74.6 µM
PC-3 prostate
  TGI: 98.6 µM
SK-MEL-2 melanoma
  TGI: 55.5 µM
NCI/ADR-RES ovarian
  TGI: > 100 µM
NCI-H23 lung
  TGI: > 100 µM
IGROV1 ovarian
  TGI: > 100 µM
OVCAR-8 ovarian
  TGI: > 100 µM
MOLT-4 leukemia
  TGI: > 100 µM
NCI-H522 lung
  TGI: 41.8 µM
MCF7 breast
  TGI: > 72.9 µM
SW-620 colon
  TGI: > 100 µM
CAKI-1 renal
  TGI: > 100 µM
A498 renal
  TGI: > 100 µM
TK-10 renal
  TGI: > 100 µM
EKVX NSCLC
  TGI: > 63.9 µM
UACC-62 melanoma
  TGI: > 62 µM
KM12 colon
  TGI: > 100 µM
HOP-92 NSCLC
  TGI: > 79.9 µM
RXF 393 renal
  TGI: > 71.7 µM
DU-145 prostate
  TGI: > 100 µM
SF-295 CNS
  TGI: > 100 µM
NCI-H226 lung
  TGI: > 100 µM
HOP-62 NSCLC
  TGI: > 77.6 µM
HT29 colon
  TGI: > 100 µM
SF-539 CNS
  TGI: > 100 µM
HS 578T breast
  TGI: > 90 µM
SF-268 CNS
  TGI: > 100 µM
RPMI-8226 leukemia
  TGI: > 73 µM
MDA-N
  TGI: > 100 µM
HCT-116 colon
  TGI: > 100 µM
HCT-15 colon
  TGI: > 100 µM
NCI-H460 lung
  TGI: > 73.5 µM
786-0 renal
  TGI: > 90.9 µM
HCC-2998 colon
  TGI: > 61.4 µM
U251 CNS
  TGI: > 58.2 µM
MDA-MB-435
  TGI: > 71.6 µM
SNB-75 CNS
  TGI: > 100 µM
UACC-257 melanoma
  TGI: > 89.6 µM
ACHN renal
  TGI: > 100 µM
SR leukemia
  TGI: > 100 µM
MALME-3M melanoma
  TGI: > 100 µM
A549 NSCLC
  TGI: > 100 µM
SK-OV-3 ovarian
  TGI: > 100 µM
K-562 leukemia
  TGI: > 100 µM

From PubChem BioAssay (NCI)
